In assay [1] the test system is T1, PI3αKinase, p110α/p85α.
T1 construct: purchased Promega
The experiment in a line: Inhibitor specificity against other enzymes: PI3Kα. Format: biochemical.
Source text: (§1) Enzyme tested are protein serine/threonine/tyrosine, lipid, sugar, and inorganic kinases, and K/Na ATPase. […] PKA, protein kinase A (solid circle), PKCα (solid square), Src, protein tyrosine Src kinase (solid triangle), Acka, acetate kinase from Escherichia coli (solid reverse triangle), HK, hexokinase from Saccharomyces cerevisiae (solid circle), PI3αKinase, p110α/p85α (square), K/K ATPase, Adenosine 5´-Triphosphatase from porcine cerebral cortex (circle), CD39 (ATP substrate, triangle), and CD39 (ADP substrate, reverse triangle); for CD73 (triangle) in panel B. Each point represents average of a typical experiment done in triplicates; results shown are mean ± SD.

Assay [2] deals with T2, PKA, protein kinase A.
T2 construct: purchased Promega
Put plainly: Inhibitor specificity against other enzymes: PKA. In kind it is biochemical.
Source text: as §1

The test system of assay [3] is T3, Acka, acetate kinase.
T3 construct: purchased Millipore Sigma
Put plainly: Inhibitor specificity against other enzymes: acetate kinase. Format: biochemical, Escherichia coli.
Source text: as §1

Assay [4] relates to Adenosine 5'-Triphosphatase from porcine cerebral cortex (Na+/K+-ATPase).
Source text: as §1
For assay [5], the system named is HK, hexokinase. Put plainly: Inhibitor specificity against other enzymes: hexokinase. In kind it is biochemical, Saccharomyces cerevisiae.
Source text: as §1
For assay [6], the system named is T4, PKCα.
T4 construct: purchased Promega
Put plainly: Inhibitor specificity against other enzymes: PKCα. Format: biochemical.
Source text: as §1

The target in assay [7] is T5, Recombinant Human 5'-Nucleotidase/CD73 (Homo sapiens, UniProt P21589).
T5 construct: purchased R&D Systems
T5 sequence (P21589 27-574): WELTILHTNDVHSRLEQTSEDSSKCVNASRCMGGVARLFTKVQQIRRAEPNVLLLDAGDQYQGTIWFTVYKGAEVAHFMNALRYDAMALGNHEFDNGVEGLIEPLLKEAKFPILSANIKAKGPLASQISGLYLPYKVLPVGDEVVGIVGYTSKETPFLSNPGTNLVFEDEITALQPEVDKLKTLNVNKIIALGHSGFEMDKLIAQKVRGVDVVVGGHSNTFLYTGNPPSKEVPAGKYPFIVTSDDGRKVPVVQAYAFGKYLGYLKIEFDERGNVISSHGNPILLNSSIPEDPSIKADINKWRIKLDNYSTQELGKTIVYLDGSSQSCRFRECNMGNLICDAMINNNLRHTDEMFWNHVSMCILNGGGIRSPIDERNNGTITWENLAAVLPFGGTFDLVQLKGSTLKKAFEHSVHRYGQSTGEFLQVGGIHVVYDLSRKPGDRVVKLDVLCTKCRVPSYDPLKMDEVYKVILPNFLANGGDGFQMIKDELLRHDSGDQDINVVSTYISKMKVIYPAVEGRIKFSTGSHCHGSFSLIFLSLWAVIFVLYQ
Put plainly: Enzyme activity of purified CD73 (AMP-Glo assay). The conditions noted are these: for IC50: 0.1 ng CD73, 5min at 23°C. In kind it is biochemical. Here is the method:
• Determination of enzyme activity of purified CD73. In a 25 μl reaction buffer (10mM HEPES, pH 7.4, 2mM MgCl2, 1mM CaCl2, and 0.1mg/ml BSA) containing enzyme and AMP substrate at 1μM to 10μM (96-well format), enzyme activity was performed at 23°C for specified time period and terminated by the addition of equal volume (25μl) of AMP-Glo™ Reagent I containing 50 μM (final concentration) of known CD73 inhibitor, such as AMPCP. Reactions were mixed well and incubated for additional 30 min at 23°C. This was followed by the addition of 50 μl of AMP Detection Solution (10μl of AMP-Glo™ Reagent II per ml of Kinase-Glo® One Solution) and incubated for additional 60 min at 23°C before reading luminescence.

Assay [8] addresses T6, CD39 (His-Tag Human) (Homo sapiens, UniProt P49961).
T6 construct: His; purchased R&D Systems
T6 sequence (P49961 1-510): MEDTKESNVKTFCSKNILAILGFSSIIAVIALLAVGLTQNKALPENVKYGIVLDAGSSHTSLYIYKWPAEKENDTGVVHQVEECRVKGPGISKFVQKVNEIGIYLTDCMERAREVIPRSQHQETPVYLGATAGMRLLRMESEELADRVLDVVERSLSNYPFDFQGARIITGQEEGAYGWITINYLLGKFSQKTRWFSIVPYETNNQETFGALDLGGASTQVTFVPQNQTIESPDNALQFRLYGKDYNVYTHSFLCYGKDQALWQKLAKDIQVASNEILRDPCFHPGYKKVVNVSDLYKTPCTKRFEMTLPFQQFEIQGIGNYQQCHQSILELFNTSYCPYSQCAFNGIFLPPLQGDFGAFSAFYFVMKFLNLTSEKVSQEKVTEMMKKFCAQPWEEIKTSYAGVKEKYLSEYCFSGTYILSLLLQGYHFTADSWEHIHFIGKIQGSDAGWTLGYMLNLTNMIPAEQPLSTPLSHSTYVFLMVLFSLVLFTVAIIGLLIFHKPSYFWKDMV
The experiment in a line: Enzyme activity of purified CD39 with ATP or ADP as substrate. Format: biochemical. Particulars: for inhibitory effect on purified CD39: 0.1ng CD39, 10 μM ATP or 10 μM ADP, 30min at 37°C. Here is the method: • 2 Determination of enzyme activity of purified cytosolic cN-II. Activity of purified cN-II (Human cytosolic 5'-Nucleotidase) was determined using 25μl reaction buffer (50mM HEPES, pH 7.0, 100mM KCl, 20mM MgCl2, 5mM DTT, 2.5mM dATP, and 0.1mg/ml BSA) containing enzyme and AMP substrate at 10μM (96-well format). Reaction continued at 37°C for 60 minutes or for a certain time period and terminated by the addition of equal volume (25μl) of AMP-Glo™ Reagent I. Reactions were mixed well and incubated for additional 30 min at 23°C. This was followed by the addition of 50 μl of AMP Detection Solution (10μl of AMP-Glo™ Reagent II per ml of Kinase-Glo® One Solution) and incubated for additional 60 min at 23°C before reading luminescence. • 3 Determination of enzyme activity of purified CD39. […] When ATP is used as a substrate, an equal volume of Kinase-Glo® One Solution was added to CD39 reactions and incubated for 15 min before reading luminescence using a luminometer. When ADP is used as a substrate for CD39, after enzyme reaction completion, an equal volume of AMP Detection Solution with a known CD39 known inhibitor, such as POM 1 at 50μM final concentration was added. Reactions were mixed well and incubated for 60min before reading luminescence using luminometer. For enzyme dilution, reaction buffer can be used for dilution of enzymes.

For assay [9], the system named is T7, Src, protein tyrosine Src kinase.
T7 construct: purchased Promega
Put plainly: Inhibitor specificity against other enzymes: Src. Format: biochemical.
Source text: as §1

Assay [10] deals with luciferase. Put plainly: Control test of the compound on luciferase activity. Format: biochemical. The conditions noted are these: control for assay interference. An excerpt: Although we have not tested this assay using orthogonal assay, very recent publication used this technology (AMP Glo) to develop what they called “an exceptionally potent inhibitor of human […]” (Bowman CE, da Silva RG, Pham A, Young SW. An exceptionally potent inhibitor of human CD73. Biochemistry 2019; 58: 3331-3334) and compared their kinetic data using inorganic phosphate release and the data confirmed the validity of bioluminescence approach. Furthermore, since we launched ADP Glo for kinases and ATPases, it has been cited in over 1500 citations as well as numerus patents, and it is the main assay used for large scale screening for inhibitors in HTS laboratories. Besides, we have not found potent inhibitors of this assay other than few luciferase inhibitors which would be excluded when controls were run simultaneously. Protein concentration used in western blots for CD39 or CD39 in cells should be shown using either a housekeeping control, or the total protein concentration shown if other methods were used. Alternatively, a FACS based assay could be performed to show expression of cell surface […] or CD39.

The structures appear in SMILES notation.

As a reminder, the IC50 is the midpoint of a concentration-inhibition curve.

Take `Nc1ncnc2c1ncn2[C@@H]1O[C@H](COP(=O)(O)CP(=O)(O)O)[C@@H](O)[C@H]1O` [AMP-CP, Adenosine 5'-(α, β-methylene) diphosphate]: the “inhibition of PI3Kα” value in assay [1] is recorded as “no inhibition”. Also, in assay [2], the “inhibition of PKA” value is “minimal inhibition”. For the same compound, the “inhibition of acetate kinase” value in [3] is listed as “no inhibition”. In addition, in [4], the “inhibition of K+/Na+-ATPase” value is given as “no inhibition”. In [5], the inhibition of hexokinase result is “no inhibition”. For the same compound, the “inhibition of PKCα” value in assay [6] was “no inhibition”. The IC50 in [7] (5 μM AMP) worked out at 157 nM; in [7] (10 μM AMP), 300 nM. Also, the “inhibitory effect on purified CD39” value in assay [8] is given as “no inhibitory effect”. For the same compound, the “inhibition of Src” value in [9] was “no inhibition”.
As for `[Na+].[Na+].[Na+].[Na+].[Na+].[Na+].[O]=[W](=[O])([O-])[O-].[O]=[W](=[O])([O-])[O-].[O]=[W](=[O])([O-])[O-].[O]=[W](=[O])=[O].[O]=[W](=[O])=[O].[O]=[W](=[O])=[O].[O]=[W](=[O])=[O].[O]=[W](=[O])=[O].[O]=[W](=[O])=[O].[O]=[W](=[O])=[O].[O]=[W](=[O])=[O].[O]=[W](=[O])=[O]` [POM1, Sodium metatungstate], the “inhibition of PI3Kα” value in assay [1] is reported as “inhibited”. For the same compound, the “inhibition of PKA” value in [2] is “inhibited”. The “inhibition of acetate kinase” value in [3] was “inhibited”. In addition, the “inhibition of K+/Na+-ATPase” value in [4] is recorded as “inhibited”. In addition, the inhibition of hexokinase entry in assay [5] is recorded as “inhibited”. For the same compound, the “inhibition of PKCα” value in assay [6] is reported as “inhibited”. For the same compound, the “effect on CD73 enzyme activity” value in [7] (purified CD73, 0.1ng, 1μM AMP, 5 min at 23°C (Fig 6)) is given as “no effect”. In [10], the “effect on luciferase activity” value was “no inhibitory effect”. Moreover, the “inhibitory effect on purified CD39” value in [8] is given as “inhibited”. The compound also registered an IC50 in assay [8] (10 μM ADP as substrate, 0.1 ng enzyme) of 3.7 µM. Besides, in assay [9], the “inhibition of Src” value was “inhibited”.

The values above are taken from paper PMC6814236, “Monitoring and characterizing soluble and membrane-bound ectonucleotidases CD73 and CD39” (PLoS ONE, 2019).
